Laboratory results as given in paper PMC8478281, “Targeting the FtsZ Allosteric Binding Site with a Novel Fluorescence Polarization Screen, Cytological and Structural Approaches for Antibacterial Discovery” (Journal of Medicinal Chemistry, 2021).
Values after ≈ are worked out from the molar mass of the structure shown. Like-named read-outs stand apart in the source and are kept apart here.

Columns and labels:
BsFtsZ = molecular target: T1, BsFtsZ (Bacillus subtilis, UniProt P17865); assay: Fluorescence anisotropy of probes after consecutive additions of FtsZ, GMPCPP, MgCl2 and PC190723; assay type: binding; settings: for Fluorescence anisotropy (r): free probe: probe 10 μM in buffer; for Fluorescence anisotropy (r): + FtsZ (unassbld.) / Fluorescence anisotropy (r): + GMPCPP / Fluorescence anisotropy (r): + MgCl2 (polymer): probe 10 μM, FtsZ 10 μM; for Fluorescence anisotropy (r): + GMPCPP / Fluorescence anisotropy (r): + MgCl2 (polymer): GMPCPP 0.1 mM; for Fluorescence anisotropy (r): + MgCl2 (polymer): MgCl2 10 mM, 5–10 min
T1 construct: made in house
T1 sequence (P17865 whole entry): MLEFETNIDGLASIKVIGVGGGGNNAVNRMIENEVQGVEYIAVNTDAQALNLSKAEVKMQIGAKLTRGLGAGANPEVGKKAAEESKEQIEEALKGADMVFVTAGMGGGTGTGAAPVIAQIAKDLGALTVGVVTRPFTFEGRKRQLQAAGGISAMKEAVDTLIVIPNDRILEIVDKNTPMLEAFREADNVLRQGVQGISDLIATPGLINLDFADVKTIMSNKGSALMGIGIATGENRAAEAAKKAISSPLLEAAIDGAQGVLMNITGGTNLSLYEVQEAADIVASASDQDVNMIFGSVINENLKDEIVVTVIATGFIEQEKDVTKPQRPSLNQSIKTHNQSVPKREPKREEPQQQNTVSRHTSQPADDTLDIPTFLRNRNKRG
Procedure: (A) Fluorescence anisotropy values of the free probes (10 μM) in buffer, to which FtsZ (10 μM, unassembled) was added, followed by the slowly hydrolyzable GTP analogue GMPCPP (0.1 mM). BsFtsZ polymerization was then induced by the addition of MgCl2 (10 mM) and anisotropy values were recorded 5–10 min later. Nonfluorescent PC190723 (10 μM) was subsequently added to displace the fluorescent probe and anisotropy was measured 5 min later. (B) Fluorescence microscopy images of B. subtilis cells treated for 1.5 h with the minimal division inhibitory concentrations (MDC) of (S)-2 and each enantiomer of 5 (Table S1), acquired employing the probe fluorescence.
(§1) FtsZ from B. subtilis (BsFtsZ) was prepared as described previously.[35] FtsZ was assembled in 50 mM N-(2-hydroxyethyl)piperazine-N′-ethanesulfonic acid (HEPES)-KOH, 50 mM KCl, 1 mM ethylenediaminetetraacetic acid (EDTA), pH 6.8 (HEPES buffer) plus 10 mM MgCl2, and 1 mM GTP or 0.1 mM GMPCPP at 25 °C. FtsZ assembly was monitored by light scattering.[34]

[1] = molecular target: T2, FtsZ-GMPCPP polymers (BsFtsZ) (Bacillus subtilis, UniProt P17865); assay: Binding titration of the fluorescent probes to FtsZ polymers by fluorescence anisotropy
T2 construct: made in house
T2 sequence (P17865 whole entry): as above
Procedure: as §1
The fluorescence spectra and anisotropy values of the different probes were acquired with a Fluoromax-4 (Horiba Jobin Yvon) photon-counting L-format spectrofluorometer using 2 mm × 10 mm cells at 25 °C, employing the maximum excitation and emission wavelength for each probe with 2 and 5 nm bandwidths, respectively. Anisotropy values were automatically measured as r = (Ivv – G Ivh)/(Ivv + 2G Ivh), where the subscripts refer to the vertical (v) or horizontal (h) positions of the excitation (first subscript) and emission (second subscript) polarizers, and G = Ihv/Ihh. Total intensity values were simultaneously determined as IT = Ivv +2G Ivh. Note that measurement correction procedures with T-format (double channel) fluorometers and with plate readers are slightly different.
FtsZ (10–15 μM) was assembled in HEPES buffer, 10 mM MgCl2, 50 μM GMPCPP at 25 °C for 10 min, and then 0.15% (v/v) glutaraldehyde[36] (distilled grade for microscopy, TAAB Laboratories, U.K.) was added to the solution that was incubated at 25 °C for 10 min more. (This was the minimal glutaraldehyde concentration determined to stabilize FtsZ polymers specifically binding probe 1.) The remains of the cross-linking agent were quenched by adding 60 mM NaBH4, the sample was incubated on ice for 10 min and degassed.[36] Cross-linked polymers were centrifuged for 10 min at 8200g (5000 rpm) and 4 °C in 15 mL Falcon tubes employing a Rotina 380R (Hettich) centrifuge, the supernatant was removed and the pellet was resuspended in the same volume of HEPES buffer, 10 mM MgCl2, containing 5 μM GMPCPP. Fixed FtsZ polymers were active in binding assays after more than 2 days at 4 °C; they could also be frozen in liquid nitrogen with a small loss of binding capacity. […] Cross-linked polymers of SaFtsZ were similarly prepared.
Binding affinity of the probes to FtsZ was measured by an increase in anisotropy of the probe (adapted from ref ([49])). Fixed concentrations of the probes (3 μM) were titrated with different FtsZ polymer concentrations (0–40 μM) in HEPES buffer with Mg^2+, to obtain the anisotropy increment, Δrmax, corresponding to the bound probe. The increase in anisotropy was plotted against the FtsZ polymer concentration (calculated by subtracting from the total protein concentration the critical concentration for polymerization under the same conditions) and iteratively least-squares fitted with an isotherm of binding to one site. The estimated values of Δrmax were used to approximate the free FtsZ concentrations, and these new values were employed again until an unchanging Δrmax value was obtained. The convergent data were used to calculate the binding constant of the fluorescent probe to FtsZ polymers (Table S1).

[2] = molecular target: T3, glutaraldehyde-stabilized FtsZ polymers (Bacillus subtilis, UniProt P17865); assay: Stoichiometry of probe binding by polymer pelleting (centrifugation assay)
T3 construct: made in house
T3 sequence (P17865 whole entry): as above
Procedure: The stoichiometry of binding of (R)-5 to stabilized FtsZ polymers was measured using a centrifugation assay adapted from ref ([49]). Then, FtsZ polymers (10 μM) were incubated at 25 °C in HEPES buffer, 10 mM MgCl2, 2% DMSO, and 0.1 mM GMPCPP at 25 °C in the presence of different probe concentrations, in a final volume of 0.1 mL. The samples were then centrifuged for 20 min at 100 000 rpm and 25 °C in a TLA-100 rotor. After centrifugation, the supernatant was carefully withdrawn and the pellets were resuspended in the same volume of buffer. The concentration of the free probe was determined spectrophotometrically in the supernatant, employing an extinction coefficient ε483 = 25 400 M^–1 cm^–1 for (R)-5 and the concentration of probe bound to FtsZ was calculated as the difference of the known total concentration of probe minus the free concentration. To calculate the FtsZ polymer concentration, 5 μL of the resuspended pellet was applied to sodium dodecyl sulfate (SDS)-12% polyacrylamide gels, stained with Coomassie blue, scanned with a CS-800 calibrated densitometer (BioRad), and the protein bands quantified using Quantity One software (BioRad).

S. aureus Mu50 = assay: Minimal growth inhibitory concentration (broth macrodilution), S. aureus Mu50; assay type: cell-based, Staphylococcus aureus
In short: (§2)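 Strains grown in cation-adjusted Mueller–Hinton broth at 37 °C (B. subtilis SU570 at 30 °C) to A600 0.1–0.2, then exposed to compounds or DMSO. MIC by broth macrodilution; division phenotype assessed by microscopy and cell measurement.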

B. subtilis [3] = assay: Minimal growth inhibitory concentration (broth macrodilution), B. subtilis; assay type: cell-based, Bacillus subtilis; settings: Table S1, fluorescent probes
In short: as §2

B. subtilis [4] = tested on: B. subtilis; set-up: method as in earlier work; settings: Table S1; ref 1 (Artola et al., Chem. Sci. 2017); cited from earlier work
[5] = FtsZ-GMPCPP polymers, best fit values from binding titrations
[6] = binding to stabilized FtsZ polymers

SMILES	Fluorescence anisotropy (r): + PC190723 (BsFtsZ; data from Fig. 5A)	Fluorescence anisotropy (r): free probe (BsFtsZ)	Fluorescence anisotropy (r): + FtsZ (unassbld.) (BsFtsZ)	Fluorescence anisotropy (r): + GMPCPP (BsFtsZ)	Fluorescence anisotropy (r): + MgCl2 (polymer) (BsFtsZ)	Imax/Imin [1, 5]	rmax (all probe bound) [1, 5]	rmin (free probe) [1, 5]	Kd [1, 5] [µM]	Kd [1, 6] [µM]	Imax/Imin [1, 6]	rmax (all probe bound) [1, 6]	rmin (free probe) [1, 6]	stoichiometry of probe binding [2]	effect on growth of S. aureus Mu50, in words (S. aureus Mu50; 250 µM)	MIC S. aureus Mu50 (S. aureus Mu50; Table S1, fluorescent probes) [µM]	MIC B. subtilis (B. subtilis [3]) [µM]	Fluorescence anisotropy (r): + PC190723 (BsFtsZ; PC190723 10 μM added to the polymer, 5 min)	MIC B. subtilis (B. subtilis [4]) [µM]
CCC[C@H](COc1ccc(F)c(C(N)=O)c1F)Nc1ccc([N+](=O)[O-])c2nonc12 [(R)-5]	0.052	0.029	0.041	0.040	0.227	6.2	0.272	0.029	1.9 ± 0.6	2 ± 0.5	5.0	0.268	0.029	0.6 molecules per FtsZ monomer	partially inhibited growth	> 250	25 (≈ 10.5 µg/mL)	–	–
NC(=O)c1c(F)ccc(OCCNc2ccc([N+](=O)[O-])c3nonc23)c1F [Compound 1, reference compound]	–	0.022	0.027	0.026	0.080	1.0	0.213	0.024	26 ± 3	17 ± 1	1.0	0.26	0.024	–	–	–	–	0.029	800 (≈ 303 µg/mL)
